Laboratory results reported in ChEMBL document CHEMBL1144881, “3,6-dibromocarbazole piperazine derivatives of 2-propanol as first inhibitors of cytochrome c release via Bax channel modulation” (J Med Chem, 2003).

Experiments:
HeLa [1] = assay: cells; assay type: functional; conditions: Homo sapiens
Description: In vitro inhibition of cytochrome C release in isolated mitochondria by the compound at a concentration of 10 uM was determined

HeLa [2] = assay: cells; assay type: functional; conditions: Homo sapiens; remark: listed apart in the source
Description: In vitro inhibition of cytochrome C release in isolated mitochondria by the compound at a concentration of 20 uM was determined

HeLa [3] = assay: cells; assay type: functional; conditions: Homo sapiens; remark: listed apart in the source
[4] = target: Apoptosis regulator BAX (Homo sapiens) (UniProt Q07812); assay: cells
HeLa [5] = assay: In vitro inhibition of cytochrome C release in isolated mitochondria by the compound was determined; assay type: functional, Homo sapiens; design: concentration or dose not given beside the values

Row | SMILES | IC50 [4] | inhibition at 10 µM (HeLa [1]) | inhibition at 20 µM (HeLa [2]) | inhibition at 5 µM (HeLa [3]) | Inhibition (HeLa [5])
1 | OC(CN1CCNCC1)Cn1c2ccc(Br)cc2c2cc(Br)ccc21 (stereo not given) |  | 94% | 99% | 77% | 
2 | O=C(Nc1ccc(F)cc1)N1CCN(CC(O)Cn2c3ccc(Br)cc3c3cc(Br)ccc32)CC1 (stereo not given) | 1.27 µM |  |  |  | 15%
3 | OC(CN1CCN(c2ccc(F)cc2)CC1)Cn1c2ccc(Br)cc2c2cc(Br)ccc21 (stereo not given) | 2.38 µM |  |  |  | 15%
4 | NC(CN1CCNCC1)Cn1c2ccc(Br)cc2c2cc(Br)ccc21 (stereo not given) | 0.96 µM |  |  |  | 71%
5 | FC(F)(CN1CCNCC1)Cn1c2ccc(Br)cc2c2cc(Br)ccc21 | 0.68 µM | 83% | 96% | 61% | 

Now from value to molecule, other results behind:

Row | IC50 [4] | SMILES | inhibition at 10 µM (HeLa [1]) | inhibition at 20 µM (HeLa [2]) | inhibition at 5 µM (HeLa [3]) | Inhibition (HeLa [5])
6 | 0.47 µM | OC(CN1CCN(CCN2CCOCC2)CC1)Cn1c2ccc(Br)cc2c2cc(Br)ccc21 (stereo not given) | 74% | 95% | 21% | 
7 | 0.37 µM | COc1ccc(CN2CCN(CC(O)Cn3c4ccc(Br)cc4c4cc(Br)ccc43)CC2)cc1 (stereo not given) | 82% | 99% | 61% | 
8 | 0.48 µM | OC(CN1CCN(Cc2ccc(F)cc2)CC1)Cn1c2ccc(Br)cc2c2cc(Br)ccc21 (stereo not given) |  |  |  | 65%
9 | 0.29 µM | O=C(CN1CCNCC1)Cn1c2ccc(Br)cc2c2cc(Br)ccc21 |  |  |  | 71%
